According to BindingDB's records for patent US20260055108 (Hutchmed, 2026):

Molecular target: T1, Menin [2-610] (UniProt O00255)
T1 construct: 2-610
T1 sequence (O00255 whole entry): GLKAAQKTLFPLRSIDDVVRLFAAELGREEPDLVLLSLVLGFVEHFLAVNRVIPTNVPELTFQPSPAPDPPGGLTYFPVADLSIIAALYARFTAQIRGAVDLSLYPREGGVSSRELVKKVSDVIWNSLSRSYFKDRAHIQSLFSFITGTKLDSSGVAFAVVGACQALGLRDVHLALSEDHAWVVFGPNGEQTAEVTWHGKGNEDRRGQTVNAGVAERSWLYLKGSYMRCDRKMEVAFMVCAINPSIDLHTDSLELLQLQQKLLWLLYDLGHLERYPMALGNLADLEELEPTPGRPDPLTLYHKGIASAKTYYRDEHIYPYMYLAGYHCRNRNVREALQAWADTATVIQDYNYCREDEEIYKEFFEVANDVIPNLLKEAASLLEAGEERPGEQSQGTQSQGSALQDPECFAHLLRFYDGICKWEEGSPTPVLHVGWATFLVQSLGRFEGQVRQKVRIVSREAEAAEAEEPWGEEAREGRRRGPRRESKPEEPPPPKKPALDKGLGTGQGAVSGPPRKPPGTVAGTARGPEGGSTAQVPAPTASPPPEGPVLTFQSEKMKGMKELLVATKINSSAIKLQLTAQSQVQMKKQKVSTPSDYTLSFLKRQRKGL
Experiment: Fluorescence Polarization Assay
Experimental: 4 μL of 5× test compound was added to each reaction well of the 384-well plate, and the corresponding volume of 10% DMSO was added to the control wells. Except the control wells, 8 μL of Menin protein reaction solution was added to each well. The reaction solution was incubated at room temperature for 30 minutes, and then 8 μL of MLL polypeptide reaction solution was added to each well. The final concentrations of DMSO in the test compound wells and control wells were all 2%. The 384-well plate was sealed and incubated at room temperature for 30 minutes in the dark.

IC50: 2.2 nM
Structure (SMILES): CCNC(=O)N1CCC(CN2CCC3(CC2)CN(c2ncnnc2Oc2ccc(F)cc2C(=O)N(CC)C(C)C)C3)CC1 [US20260055108, Compound 28]
